Tested on: serotonin in terminal areas
Test: microdialysis experiments (level of serotonin in terminal areas)
Assay type: in vivo
Settings: administration of agomelatine alone
Text: Administration of agomelatine alone causes no increase in serotonin levels as measured in microdialysis experiments.

SMILES: COc1ccc2cccc(CCNC(C)=O)c2c1 [agomelatine]
- serotonin levels as measured in microdialysis experiments: no increase
